Read-outs that look alike come from different tables or passages of the source. Some results are limits rather than exact numbers.

One assay relates to A549. Kind of assay: Cancer cell viability, A549 (CellTiter-Glo). The assay is classed as cell-based. The settings on record: Homo sapiens, 72 h, A549 cells, 3 days, read-out: Cellular IC50 (μM) A549. A digest of the protocol:
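A549 and/or LK-2 lung carcinoma cells seeded overnight (20 K/mL A549; 35 K/mL LK-2), then exposed to compound for 3 days. Viability read as CellTiter-Glo luminescence after 15 min lysis; data fitted to curves.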
A general note: ATP-based viability assays read luminescence as a measure of living cells.

The next assay deals with T1, Nrf2 (Homo sapiens, UniProt Q16236).
T1 sequence (Q16236 1-605): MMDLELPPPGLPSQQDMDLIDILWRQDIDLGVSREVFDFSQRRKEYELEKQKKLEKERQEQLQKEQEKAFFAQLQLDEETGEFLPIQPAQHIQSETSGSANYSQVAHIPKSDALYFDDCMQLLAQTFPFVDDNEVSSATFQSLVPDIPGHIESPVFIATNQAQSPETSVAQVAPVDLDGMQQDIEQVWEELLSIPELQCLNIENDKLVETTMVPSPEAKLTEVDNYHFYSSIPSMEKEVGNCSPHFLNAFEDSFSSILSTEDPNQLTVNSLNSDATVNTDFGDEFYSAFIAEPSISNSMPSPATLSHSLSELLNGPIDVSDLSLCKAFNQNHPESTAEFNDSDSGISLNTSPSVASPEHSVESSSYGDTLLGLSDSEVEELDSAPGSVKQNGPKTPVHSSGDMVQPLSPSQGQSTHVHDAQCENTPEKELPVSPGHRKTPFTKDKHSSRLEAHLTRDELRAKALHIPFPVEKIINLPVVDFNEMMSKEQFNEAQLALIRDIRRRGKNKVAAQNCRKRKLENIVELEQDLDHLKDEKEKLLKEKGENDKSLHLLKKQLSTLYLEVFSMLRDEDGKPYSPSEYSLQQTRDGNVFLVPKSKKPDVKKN
Kind of assay: Nrf2 degradation in A549 HiBiT-Nrf2 cells, Nano-Glo HiBiT lytic detection (HiBiT readout). Format: cell-based. On the set-up: host or cells: A549 HiBiT-Nrf2 cells (engineered line bought from Promega). The method in brief:
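A549 HiBiT-Nrf2 cells seeded at 5,000 cells/well in Ham's F-12 with 10% FBS, then treated next day for 6 h and 20 h at 37 °C, 5% CO2. Nrf2 degradation read by Nano-Glo HiBiT lytic luminescence after 30 min at room temperature; staurosporine served as control.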
A general note: With HiBiT, luminescence reflects the tagged protein that the partner subunit can reach.

Setting [1] is: 6 h, read-out: DC50 (nM) at 6 h.
[2] abbreviates: 20 h, read-out: DC50 (nM) at 20 h.

On to `Cc1sc(NC(=O)Cc2ccc(F)c(OCCOCCNc3ccc4c(c3)CN(C3CCC(=O)NC3=O)C4=O)c2)nc1-c1ccc2c(c1)CCN2C(=O)c1cncn1C` (stereo not drawn) [Cpd. No. 30, 2-(3-(2-(2-((2-(2,6-dioxopiperidin-3-yl)-1-oxoisoindolin-5-yl)amino)ethoxy)ethoxy)-4-fluorophenyl)-N-(5-methyl-4-(1-(1-methyl-1H-imidazole-5-carbonyl)indolin-5-yl)thiazol-2-yl)acetamide], for which, in the assay on A549, the concentration for half-maximal inhibition (IC50) was 0.01 µM. The 50% degradation concentration (DC50) is < 300 nM at Nrf2 (setting [1]) and > 3000 nM at Nrf2 (setting [2]).

As for `Cc1sc(NC(=O)Cc2cccc(OCCOCCNc3cccc4c3C(=O)N(C3CCC(=O)NC3=O)C4=O)c2)nc1-c1ccc2c(c1)CCN2C(=O)C1CC1` (stereo not drawn) [Cpd. No. 34, N-(4-(1-(cyclopropanecarbonyl)indolin-5-yl)-5-methylthiazol-2-yl)-2-(3-(2-(2-((2-(2,6-dioxopiperidin-3-yl)-1,3-dioxoisoindolin-4-yl)amino)ethoxy)ethoxy)phenyl) acetamide], the half-inhibitory concentration (IC50) with A549 amounted to 0.06 µM. In addition, the DC50 at Nrf2 (setting [1]) and at Nrf2 (setting [2]) was < 300 nM each time.

In general, IC50 refers to the concentration that inhibits the measured activity by half. Broadly, the DC50 is the concentration at which degradation of the target reaches its halfway point.

These data come from patent publication US20260055097A9, “NRF2 PROTEIN DEGRADERS” (Ganymede Oncology, Inc., priority 2022, published 2026).
